Test [1] has as its target T1, Alpha-1A adrenergic receptor (Rattus norvegicus, UniProt P43140).
T1 sequence (P43140 whole entry): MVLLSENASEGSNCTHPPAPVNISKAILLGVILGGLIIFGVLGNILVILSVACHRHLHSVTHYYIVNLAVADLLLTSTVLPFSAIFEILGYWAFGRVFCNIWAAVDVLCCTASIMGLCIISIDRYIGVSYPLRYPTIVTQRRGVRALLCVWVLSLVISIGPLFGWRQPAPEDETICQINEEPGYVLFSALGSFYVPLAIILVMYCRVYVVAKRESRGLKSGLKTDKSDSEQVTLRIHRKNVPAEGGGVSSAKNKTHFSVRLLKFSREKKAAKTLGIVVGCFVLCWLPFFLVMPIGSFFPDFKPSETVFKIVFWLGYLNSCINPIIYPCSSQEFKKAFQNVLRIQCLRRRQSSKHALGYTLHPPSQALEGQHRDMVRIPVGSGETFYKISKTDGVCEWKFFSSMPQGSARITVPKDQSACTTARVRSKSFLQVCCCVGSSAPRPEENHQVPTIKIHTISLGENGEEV
Description: In vitro functional activity at Alpha-1A adrenergic receptor in rat vas deferens. Type of test: tissue-based. As to conditions: read-out: pA2 (converted).

Test [2] addresses T2, Alpha-1A adrenergic receptor (Bos taurus, UniProt P18130).
T2 sequence (P18130 whole entry): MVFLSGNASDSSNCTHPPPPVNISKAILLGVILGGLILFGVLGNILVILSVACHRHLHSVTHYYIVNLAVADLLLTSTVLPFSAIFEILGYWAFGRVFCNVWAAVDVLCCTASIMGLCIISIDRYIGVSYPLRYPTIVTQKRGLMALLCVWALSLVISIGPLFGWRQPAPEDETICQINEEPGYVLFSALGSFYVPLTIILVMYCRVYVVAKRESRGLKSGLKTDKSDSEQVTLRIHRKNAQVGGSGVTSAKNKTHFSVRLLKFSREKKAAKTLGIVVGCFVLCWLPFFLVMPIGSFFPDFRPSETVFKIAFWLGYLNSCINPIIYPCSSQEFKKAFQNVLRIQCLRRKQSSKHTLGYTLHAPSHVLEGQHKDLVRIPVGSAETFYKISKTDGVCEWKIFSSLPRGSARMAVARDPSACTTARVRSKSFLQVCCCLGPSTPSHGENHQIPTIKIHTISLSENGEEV
Description: Binding affinity towards bovine Alpha-1A adrenergic receptor.

For test [3], the target named is T3, Alpha-2A adrenergic receptor (Homo sapiens, UniProt P08913).
T3 sequence (P08913 whole entry): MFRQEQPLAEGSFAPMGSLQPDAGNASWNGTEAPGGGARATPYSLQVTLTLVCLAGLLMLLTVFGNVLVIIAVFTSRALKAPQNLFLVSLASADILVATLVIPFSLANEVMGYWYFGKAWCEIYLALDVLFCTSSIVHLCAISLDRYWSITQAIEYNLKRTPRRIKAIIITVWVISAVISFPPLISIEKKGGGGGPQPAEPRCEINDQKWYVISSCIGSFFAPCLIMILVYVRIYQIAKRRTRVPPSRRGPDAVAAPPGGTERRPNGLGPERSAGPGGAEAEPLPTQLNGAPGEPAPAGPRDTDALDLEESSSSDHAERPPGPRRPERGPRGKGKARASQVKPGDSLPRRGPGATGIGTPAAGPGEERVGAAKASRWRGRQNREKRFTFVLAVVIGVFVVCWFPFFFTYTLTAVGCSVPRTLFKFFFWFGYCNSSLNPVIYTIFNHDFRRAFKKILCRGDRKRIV
Description: Ancillary Binding affinity towards cloned human Alpha-2A adrenergic receptor.

Test [4] has as its target T4, Alpha-2B adrenergic receptor (Rattus norvegicus, UniProt P19328).
T4 sequence (P19328 whole entry): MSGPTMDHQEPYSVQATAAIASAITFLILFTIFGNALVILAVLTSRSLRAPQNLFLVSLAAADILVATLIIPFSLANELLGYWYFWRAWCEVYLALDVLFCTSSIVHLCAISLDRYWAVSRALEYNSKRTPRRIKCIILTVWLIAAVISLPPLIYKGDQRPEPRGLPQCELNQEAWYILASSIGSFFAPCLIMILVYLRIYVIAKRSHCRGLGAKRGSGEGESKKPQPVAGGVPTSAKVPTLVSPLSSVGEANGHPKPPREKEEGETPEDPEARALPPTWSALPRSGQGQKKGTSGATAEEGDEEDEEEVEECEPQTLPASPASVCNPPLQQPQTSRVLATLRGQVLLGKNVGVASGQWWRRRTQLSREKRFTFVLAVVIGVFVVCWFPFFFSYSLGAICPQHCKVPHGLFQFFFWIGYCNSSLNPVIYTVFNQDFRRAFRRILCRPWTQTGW
Description: Ancillary Binding affinity towards rat alpha-2B receptor.

Test [5] deals with T5, Alpha-1D adrenergic receptor (Rattus norvegicus, UniProt P23944).
T5 sequence (P23944 whole entry): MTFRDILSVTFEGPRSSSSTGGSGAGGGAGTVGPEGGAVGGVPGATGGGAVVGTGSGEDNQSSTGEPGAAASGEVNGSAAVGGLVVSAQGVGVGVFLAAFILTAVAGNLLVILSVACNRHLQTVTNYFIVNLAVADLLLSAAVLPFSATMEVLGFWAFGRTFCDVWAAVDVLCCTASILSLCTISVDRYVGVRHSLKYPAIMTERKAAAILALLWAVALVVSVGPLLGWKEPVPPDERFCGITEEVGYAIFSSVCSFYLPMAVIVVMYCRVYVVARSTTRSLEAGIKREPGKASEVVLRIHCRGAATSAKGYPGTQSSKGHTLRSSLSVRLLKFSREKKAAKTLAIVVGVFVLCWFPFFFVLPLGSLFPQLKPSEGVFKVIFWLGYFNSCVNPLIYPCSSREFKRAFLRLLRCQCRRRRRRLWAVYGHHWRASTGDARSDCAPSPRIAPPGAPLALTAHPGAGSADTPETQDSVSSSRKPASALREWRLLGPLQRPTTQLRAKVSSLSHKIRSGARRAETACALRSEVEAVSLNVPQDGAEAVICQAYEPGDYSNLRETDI
The test is described as follows: Binding affinity towards rat Alpha-1D adrenergic receptor.

The next test addresses D(2) dopamine receptor (Rattus norvegicus, UniProt P61169). The test is described as follows: Ancillary Binding affinity towards rat Dopamine receptor D2.
The nature of test [6]: Ancillary Binding affinity towards rat 5-hydroxytryptamine 2 receptor.

The structures appear in SMILES notation.

Chain of D(2) dopamine receptor (P61169 whole entry): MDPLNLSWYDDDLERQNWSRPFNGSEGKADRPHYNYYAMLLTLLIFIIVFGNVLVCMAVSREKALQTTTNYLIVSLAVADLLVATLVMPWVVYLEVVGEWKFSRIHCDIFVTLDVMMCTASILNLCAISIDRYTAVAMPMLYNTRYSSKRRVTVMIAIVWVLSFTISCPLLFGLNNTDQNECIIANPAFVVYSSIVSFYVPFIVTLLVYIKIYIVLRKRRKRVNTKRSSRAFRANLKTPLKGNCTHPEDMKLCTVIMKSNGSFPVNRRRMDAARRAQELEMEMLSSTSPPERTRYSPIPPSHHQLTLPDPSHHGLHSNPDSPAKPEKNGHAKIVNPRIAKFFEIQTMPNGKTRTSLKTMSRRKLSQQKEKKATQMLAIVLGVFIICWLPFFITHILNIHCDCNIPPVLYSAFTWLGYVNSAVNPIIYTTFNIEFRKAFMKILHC

As to `COc1ccccc1N1CCN(CCn2c(=O)[nH]c3scc(-c4ccccc4)c3c2=O)CC1` [A-119637], the Kb in test [1] is 8.51 nM. Moreover, the Ki – broadly, the equilibrium dissociation constant of an inhibitor or competing ligand from its target – in test [2] was determined as 0.274 nM; in test [3], 77.8 nM; in test [4], 71 nM; in test [5] it was 0.213 nM; at D(2) dopamine receptor, 50 nM; in test [6], 137 nM.
As for `COc1ccccc1N1CCN(CCn2c(=O)[nH]c3scc(-c4cccc(C)c4)c3c2=O)CC1` [A-123189], the Kb in test [1] was 4.37 nM. The Ki was 0.348 nM in test [2]; 82.5 nM in test [3]; 66.6 nM in test [4]; 0.17 nM in test [5]; 17 nM at D(2) dopamine receptor; 2190 nM in test [6].

The values above are taken from ChEMBL document CHEMBL1134245, “Two novel and potent 3-[(o-methoxyphenyl)piperazinylethyl]-5-phenylthien” (Bioorg Med Chem Lett, 2001).
